Measured values reported in US8222242B2, “Nitric oxide releasing compounds” (The Regents of the University of California, priority 2008, dated 2012).

How the values were obtained:
[1] = system: mice; format: in vivo, mouse
Method: Mice were anesthetized with 1.5% isoflurane gas, and after achieving a stable blood pressure and pulse (about 10 minutes), they were injected intraperitoneally with 100 μl of […] 8 mM Cbi(II) (open circles, solid line), 8 mM NO-Cbi (filled circles, dashed line), or 8 mM nitroglycerin (squares, dotted lines) (panels a and b). Control refers to anesthetized mice who received 100 μl water (triangles, solid line). In panel C, 100 μl of 6 mM NO-Cbi was injected at 0, 32, and 64 minutes as indicated by the arrows. Systolic and diastolic blood pressures, and pulse rate, were measured at the indicated times on the tail artery using a non-invasive tail cuff. The percent change in mean arterial pressure (A and C), and pulse rate (B and C) are shown. For panels A and B, data are the mean±SD of results from five mice for NO-Cbi studied on separate days, and four mice for the other conditions. […] Data in panel C are the mean±SD of results from three mice studied on different days.
Pulse, and systolic and diastolic blood pressures, were measured non-invasively in the tail artery of mice by restraining mice on a warming platform maintained at ˜38° C. The base of the tail was placed in a computer-controlled pneumatic cuff, and the distal tail was placed in a sensor assembly consisting of a light emitting diode and a photodiode detector. Baseline measurements were made with the mice awake in a dark chamber. The mice were then anesthetized with 3% isoflurane in an induction chamber, and returned to the platform where they received 1.5% isoflurane with 2 liter per minute of oxygen via a nose cone; the isoflurane caused a small, but stable, drop in blood pressure. Drugs in a volume of 100 ul were injected intraperitoneally into the mice, and pulse and blood pressure were measured every 5-15 minute, taking five readings at each time point.
To determine the effect of NO release from NO-Cbi in an intact mammal, blood pressure and pulse of mice injected intraperitoneally with NO-Cbi were measured.

[2] = system: rabbits; experiment: Continuous intravenous infusion in anesthetized rabbits: systemic hemodynamics and gas exchange; format: in vivo, rabbit
Method: NO-Cbi was given by intravenous infusion at a dose of 5 μg/kg/min (4.8 nmol/kg/min) to a 3.5 kg rabbit. […] The infusion was stopped at 10 minutes, but, because of drawing blood through the arterial line for blood gas analysis, the first measurement of blood pressure occurred 6 minutes later. Full recovery required 12 minutes, but it is possible that the initial rate of recovery was faster than shown in the graph. A small overshoot occurred in both systolic and diastolic blood pressure, before returning to pre-treatment levels.
(§1) Continuous intravenous NO-Cbi infusions were performed in anesthetized rabbits with systemic hemodynamic monitoring, continuous gas exchange analysis, and diffuse optical spectroscopy (DOS) and continuous wave near-infrared spectroscopy monitoring. DOS monitoring was over muscle as a representation of peripheral tissue, and continuous wave spectroscopy was over muscle and brain region. Six animals have been studied to date, varying NO-Cbi infusion rates in each animal between 1.7 and 6.9 μg/kg/min (1.6 and 6.7 nmol/kg/min).
The blood pressure of rabbits is similar to that of humans, but because of anesthesia, initial blood pressures in the rabbits were on average ˜80/60 mm Hg (FIG. 6). […] Blood pressure returned to baseline within 12 minutes of stopping the infusion, and starting and stopping the infusion repeatedly yielded similar results.

[3] = system: rabbits; experiment: Tissue hemoglobin and cytochrome c oxidase in rabbit muscle and brain (DOS, continuous wave near-infrared spectroscopy); format: in vivo
Method: NO-Cbi at a dose of 5 μg/kg/min (4.8 nmol/kg/min) was given to a 4 kg rabbit starting at 2 minutes and ending at 11.5 minutes; the drug's effect was monitored by diffuse optical spectroscopy (DOS) over the left thigh muscle. […] All of these changes reversed within 1 minute of stopping the NO-Cbi with a small overshoot in both the oxy- and deoxyhemoglobin concentrations.
NO-Cbi was given to a 3.9 kg rabbit at doses of 6.87, 3.44, and 1.72 μg/kg/min (6.6, 3.3, 1.7 nmol/kg/min), as indicated in the brown rectangular boxes corresponding to drug infusion rates of 1.8, 0.9, and 0.45 ml/min, respectively. Infusion times were for 10 minutes, followed by a 20 minute wash-out period. Oxy-, deoxy- and total hemoglobin concentrations were monitored in the brain by continuous wave near-infrared spectroscopy; changes in hemoglobin concentration are shown as relative units, because continuous wave spectroscopy is not quantitative due to light loss from scattering. As occurred in peripheral muscle (FIG. 7), NO-Cbi caused the deoxyhemoglobin concentration to increase and the oxyhemoglobin concentration to decrease. […] The gradual decrease in total hemoglobin over time was from blood sampling for blood gases and blood hemoglobin content. A dose response effect of NO-Cbi on all three hemoglobin concentration changes can be seen.
as §1

[4] = system: rabbits; experiment: Rabbits with phenylephrine-induced hypertension; format: in vivo, rabbit
Method: Phenylephrine was given by continuous intravenous infusion to an anesthetized rabbit at increasing rates from 5 to 20 μg/kg/min; the rabbit remained on the highest phenylephrine infusion rate until the end of the experiment (darker arrows with “A”-shaped arrowheads indicate start times of each increasing dose). At 49 minutes, an infusion of NO-Cbi was started at a rate of 3 μg/kg/min (2.9 nmol/kg/min), with the infusion rate doubled at 58 minutes (lighter arrows with triangular-shaped arrowheads indicate start times of infusions). Systolic and diastolic blood pressure recordings from an intra-arterial catheter are shown. Changes in total hemoglobin, oxyhemoglobin, and deoxyhemoglobin concentrations were measured by continuous wave near-infrared spectroscopy over the left thigh muscle. Phenylephrine caused a progressive decrease in total hemoglobin and oxyhemoglobin concentrations, which reversed within seconds of starting the NO-Cbi infusion.
Decreased tissue oxygenation as occurred in the experiments shown in FIGS. 7 and 8 would clearly be an undesirable effect of treating hypertensive patients with NO-Cbi. However, lowering blood pressure of a hypertensive patient is very different from lowering blood pressure of a normotensive subject, and the experiments described in Example 15 rabbits with normal or low (due to anesthesia) blood pressure. To simulate a hypertensive state, the blood pressure of rabbits was raised using a continuous intravenous infusion of phenylephrine, a peripheral vasoconstrictor (FIG. 9). As the rabbit's blood pressure increased above normal, tissue perfusion and oxygenation decreased, as evidenced by a decrease in total hemoglobin and oxyhemoglobin concentrations in muscle.
Thus, in an animal with drug-induced hypertension, NO-Cbi improved tissue perfusion and oxygenation as it lowered blood pressure.

[5] = continuous gas exchange monitoring

## CC1=C2[N+]3=C(C=C4[N+]5=C(C(C)=C6[N]7C(C(CC(N)=O)C6(C)CCC(=O)NCC(C)O)C6(C)[N+](=C1C(CCC(N)=O)C6(C)CC(N)=O)[Co-3]753[N]=O)C(CCC(N)=O)C4(C)C)C(CCC(N)=O)C2(C)CC(N)=O (centres unmarked) [NO-Cbi, nitrosyl cobinamide]
[1]; 0.8 μmol (100 μl of 8 mM) intraperitoneally, anesthetized mice
  systolic and diastolic blood pressure: rapidly reduced
[1]; 0.8 μmol intraperitoneally
  increase of pulse rate compared with nitroglycerin: more pronounced than that observed with nitroglycerin
  time required for blood pressure to return to control values: ~45 min
[1]; equimolar amounts, intraperitoneally
  blood pressure reduction compared with nitroglycerin: reduced blood pressure more potently than an equimolar amount of nitroglycerin
[1]; mouse, in vivo
  half-life of NO-Cbi in the mice: 30 to 60 min
[1]; until 75 minutes
  pulse rate above control values: more than 10%
[2]; 5 μg/kg/min intravenous infusion
  time to new steady-state of blood pressure: 5 min
[2]; 5 μg/kg/min intravenous infusion, 3.5 kg rabbit
  time until systolic and diastolic blood pressures began to decrease: ≤ 15 s
[2]; 5 μg/kg/min, infusion stopped at 10 minutes
  time required for full recovery of blood pressure: 12 min
[2]; [5]
  arterial-venous oxygen differences: increased arterial-venous oxygen differences
  end tidal CO2: decreased end tidal CO2
[2]; equimolar amounts
  effects on blood pressure compared with nitroprusside: more rapid and pronounced than those with equimolar amounts of nitroprusside
[2]; intravenous infusion
  cardiac output (direct Fick method): decreased
  heart rate: did not change significantly
  time for blood pressure to return to baseline after stopping the infusion: ≤ 12 min
[2]; intravenous infusion 1.7 to 6.9 μg/kg/min
  blood pressure: marked infusion-rate-dependent decrease in blood pressure
[2]; suggested by return of blood pressure
  physiological half-life of NO-Cbi: 5-6 minutes
[3]; 5 μg/kg/min, thigh muscle, DOS
  time for changes to reverse after stopping NO-Cbi: ≤ 1 min
[3]; brain
  total tissue hemoglobin: increased slightly in brain
[3]; brain and muscle
  deoxyhemoglobin concentrations: increased deoxyhemoglobin concentrations
  hemoglobin oxygen saturation: decrease in hemoglobin oxygen saturation
  tissue oxyhemoglobin concentrations: decreased tissue oxyhemoglobin concentrations
[3]; muscle
  cytochrome redox state: decreasing the cytochrome redox state
  total tissue hemoglobin: decreased slightly in muscle
[4]; NO-Cbi infusion 3 μg/kg/min during phenylephrine, within seconds
  blood pressure: began to decrease
[4]; NO-Cbi infusion during phenylephrine
  total tissue hemoglobin and oxyhemoglobin concentrations: increased
